Test results reported in patent US20240115554A1, “METHODS FOR TREATING OBSTRUCTIVE HYPERTROPHIC CARDIOMYOPATHY” (Cytokinetics, Incorporated, priority 2022, published 2024).
Where “and” joins values, the source holds several entries; their conditions need not be identical. Equal values may be shown once.

Tests used:
Type in all cases: in vivo, human
[1] = test system: patients with symptomatic oHCM; assay: Open-label extension: NYHA functional class
Procedure: NYHA Functional Classification is recorded. When available, patients will complete patient-reported outcome (PRO) questionnaires: Kansas City Cardiomyopathy Questionnaire (KCCQ), Seattle Angina Questionnaire-7 (SAQ-7), EuroQol 5-Dimension 5-Level Instrument (EQ-5D-5L), Patient's Global Impression of Change (PGI-C) Scale, Clinical Global Impressions (CGI) Scale, SF-36 Physical Functioning Subscale (SF-36 PFS) as specified in Table 23.

[2] = test system: patients with symptomatic oHCM; assay: Open-label extension: echocardiography (LVOT-G, LVEF)
Procedure: Patients were up-titrated to Dose 2 if either of the following conditions were met on echocardiography: (1) resting LVOT-G ≥30 mmHg and the biplane LVEF ≥50%; or (2) resting LVOT-G <30 mmHg, post-Valsalva LVOT-G ≥50 mmHg, and the biplane LVEF ≥50%. […] If LVEF was <50%, treatment was discontinued. If LVEF was <40%, treatment is interrupted.
Ambulatory cardiac monitoring is performed on weeks 48, 96, 144, 192 and 240. Cardiac magnetic resonance is monitored at weeks 48, 144 and 240. (See FIG. 26).
At Week 2, each patient has a truncated echocardiogram following administration of their dose. Patients are up-titrated to Dose 2 if post-Valsalva LVOT-G ≥30 mmHg, and the biplane LVEF ≥55%. […] If LVEF is <50%, treatment is discontinued.
At Weeks 4, 6, 12, and every 12 weeks thereafter, each patient has an echocardiogram or truncated echocardiogram following administration of their dose (a truncated echocardiogram at weeks 4 and 6; and an echocardiogram at week 12 and every 12 weeks thereafter) to determine whether additional dose titration is needed (see Table 21 and Table 22). Patient reported outcomes, laboratory assessments, measurements of NT-proBNP, hs-cTnI, and other biomarkers are performed at week 12 and every 12 weeks thereafter. Ambulatory cardiac monitoring is performed on weeks 48, 96, 144, 192 and 240 Cardiac magnetic resonance is monitored at weeks 48, 144 and 240. If a patient develops an LVEF <40% after the Week 2 visit, a repeat echocardiogram may be performed to confirm the initial finding (preferably within 24 hours). If the echocardiography findings are confirmed, the patient will undergo a ≥2-day drug holiday.
Echocardiographic parameters to be measured at least include the left ventricular parameters (resting left ventricular outflow tract pressure gradient (LVOT-G), post-Valsalva LVOT-G, LVEF, LVFS, left ventricular strain, left ventricular end diastolic volume (LVEDV), left ventricular end systolic volume (LVESV), LV Stroke Volume), septal and free wall thickness, E/e′, E/A, LA volume.

healthy adults = assay: Phase 1 echocardiography pharmacodynamics (LVEF)
Procedure: Echocardiography. For PD assessments of LVEF, echocardiograms for the SAD and MAD cohorts were interpreted by the echocardiography core laboratory and used for all data analysis and dose level review decisions while immediate local interpretation of the echocardiograms was performed for safety monitoring. […] Echocardiograms on day 3 (48 h after dosing) were obtained only if the 24 h LVEF had not returned to near or above baseline, as determined by the investigator. In the MAD cohorts, echocardiograms were obtained on day −1, pre-dose on day 1, and at 1.5 h post dose on days 2, 4, and 9, and at 1.5, 24, and 72 h post dose on day 14 (for the 5-mg and 10-mg cohorts) or on day 17 (for the 7.5-mg cohort). Echocardiograms were obtained 3 days after the last dose (on day 17 or 20) only if the participant's prior LVEF was not near or above baseline, as determined by the investigator. […] Descriptive statistics of the echocardiographic parameters were generated using SAS® Version 9.3 or higher. Dose-response analysis was performed using analysis of covariance (ANCOVA) to identify the least-squares mean difference (aficamten minus placebo). To analyze the impact of drug dose on echocardiographic parameters in the SAD and MAD cohorts, an inferential analysis was conducted on the PD analysis set using linear mixed models for repeated-measures analysis of covariance (ANCOVA). The ANCOVA used baseline value as a covariate, included treatment, time-point, and time-point-by-treatment interaction as fixed effects, and change from baseline as the dependent variable. The unstructured variance-covariance structure was used, and the model accounted for the time-point repeated measures. The ANCOVA analysis was conducted separately for each study part and for each PD parameter. The least-squares means, the difference in least squares means (active minus placebo), and the associated 2-sided 95% CIs were presented for each comparison. Analyses of concentration ‘bin’ and exposure-response were also performed using ANCOVA. SAS® PROC MIXED was used for all comparative analyses. […] A concentration bin ANCOVA was conducted using linear mixed models for repeated-measures analyses with concentration bin group as a fixed effect, baseline PD parameters as a covariate, change from baseline as the dependent variable, and a random intercept to adjust for the repeated measures. The unstructured variance-covariance structure was used. […] The ANCOVA compared the change in PD parameters between each bin versus the pooled placebo group. The least-squares means, the difference in least squares means (bin group minus placebo), and the associated 2-sided 95% CIs were presented for each comparison. The ANCOVA analysis was conducted separately for each study part. For all time-points at which both PK data and PD measures were available, the time-points were pooled for the analysis. […] From least to greatest, the data were then divided into 5 groups of observations (‘bins’), each consisting of 20% of the data points. Each bin was treated as a separate group. […] The above analysis was then repeated using concentration as a continuous variable to estimate the exposure-response trend. Both a random intercept effect and a random concentration effect were added to the ANCOVA. The estimate of the concentration slope, with corresponding 2-sided 95% CIs, and the ANCOVA analyses were presented for each study part.

[3] = by week 48, Examples 3a and 3b interim
[4] = SAD 50 mg (n = 11), change from baseline at […]

CCc1nc(-c2ccc3c(c2)CC[C@H]3NC(=O)c2cnn(C)c2)no1 [aficamten, (R)—N-(5-(5-ethyl-1,2,4-oxadiazol-3-yl)-2,3-dihydro-1H-inden-1-yl)-1-methyl-1H-pyrazole-4-carboxamide]
patients with worsening in NYHA class from baseline ([1]; Example 3a, preliminary): No patients | patients with NYHA class improvement of one or more classes ([1]; Example 3a, up to 6 months): about 80% | patients with NYHA FC worsening [1, 3]: none | patients with ≥1 NYHA FC improvement [1, 3]: 88% | patients in NYHA class II ([1]; week 12 (baseline 47%), Example 3a): 52% | patients in NYHA class III ([1]; week 12 (baseline 53%), Example 3a): 7% | patients in NYHA class I ([1]; week 12, Example 3a): 41% | patients in NYHA class I ([1]; week 24, Example 3a): 56% | patients in NYHA class II ([1]; week 24, Example 3a): 39% | patients in NYHA class III ([1]; week 24, Example 3a): 6% | reduction in LVOT gradients over time ([2]; Weeks 2-24, site reads, Example 3a): significant and sustained reductions in LVOT gradients | Δ LVEF ([2]; baseline to week 48): −5±3% | Δ Valsalva LVOT-G mean ([2]; baseline to week 48): −47 mmHg | ΔResting LVOT-G mean ([2]; baseline to week 48): −32 mmHg | reductions in LVEF over time ([2]; through Week 24, Example 3a): minimal and stable reductions in LVEF | plasma aficamten concentration with minimal suppression of LVEF in most participants (healthy adults; MAD cohorts): < 180 ng/mL | time within which LVEF returned to baseline in participants whose LVEF fell below 50% (healthy adults; Phase 1): ≤ 24 h | E, Mean (healthy adults; SAD 50 mg (n = 11), […]): 64 cm/s | A, CFB Mean (healthy adults; [4]): 2.5 cm/s | E, CFB Mean (healthy adults; [4]): -2.7 cm/s | Heart rate, CFB Mean (healthy adults; [4]): 0.5 bpm | IVCT, CFB Mean (healthy adults; [4]): 0.4 ms | IVRT, CFB Mean (healthy adults; [4]): 0.5 ms | LAV, CFB Mean (healthy adults; [4]): 0 mL | LV EDV, CFB Mean (healthy adults; [4]): 6.6 mL | LV ESV, CFB Mean (healthy adults; [4]): 8.1 mL | LV ET, CFB Mean (healthy adults; [4]): 1.9 ms | LV SV, CFB Mean (healthy adults; [4]): -6.2 mL | LVEF, CFB Mean (healthy adults; [4]): −5.8% | e′ lateral, CFB Mean (healthy adults; [4]): -1.3 cm/s | participants with absolute reduction in LVEF of ≥5% from baseline (healthy adults; SAD 1-, 10-, or 25-mg cohorts): no participants | participants with reduction in LVEF to <50% (healthy adults; SAD 50-mg cohort (2 of 11)): 18% | LVEF of the participants with LVEF <50% (healthy adults; SAD 50-mg cohort, 2 participants, core laboratory assessment): 48.2% and 45.5% | mean maximum reduction in LVEF (healthy adults; SAD 50-mg group, […] post dose): 5.8% | participants with reduction in LVEF to <50% (healthy adults; SAD 75-mg cohort (1 of 1)): 100% | relationship of plasma concentration to change in LVEF (healthy adults; SAD cohorts): trend toward a decrease in LVEF | participants with LVEF <45% (healthy adults; SAD cohorts, core laboratory): Only the participant in the 75-mg cohort experienced LVEF <45% | reduction in LVEF to <50% (healthy adults; any of the MAD cohorts, core laboratory assessment): not observed | decrease in mean LVEF from baseline (least-squares mean difference) (healthy adults; single 50-mg dose, […] post dose): 5.5% | LVEF after reduction (healthy adults; single dose of 75 mg, 1 participant, approximately […] after dosing): 34.1% | reduction in LVEF (healthy adults; single participant, 75 mg, […] post dose): 31.5%
